Experimental data: patent US7166598B2, “Piperazine derivatives” (Astellas Pharma Inc., priority 1998, dated 2007)

SMILES	melting point
C[C@@H]1CN(CCN2CCN(C(=O)c3cc(C(F)(F)F)cc(S(C)(=O)=O)c3)[C@H](Cc3ccc(Cl)cc3)C2)C[C@H](C)O1.Cl.Cl	138.4 to 142.5 °C
COc1cc(C[C@@H]2CN(CCN3C[C@@H](C)O[C@@H](C)C3)CCN2C(=O)c2cc(SC)cc(C(F)(F)F)c2)ccc1F.Cl.Cl	62.5 to 82.4 °C
Cl.Cl.Cl.Cl.O=C(c1cc(-c2ccncc2)cc(C(F)(F)F)c1)N1CCN(CCN2CCc3ncccc3C2)C[C@H]1Cc1ccc(C(F)(F)F)cc1	205 to 218 °C
Cl.Cl.O=C(c1cc(C(F)(F)F)cc(C(F)(F)F)c1)N1CCN(CCN2CCC(F)(F)CC2)C[C@H]1Cc1ccc(F)cc1	264 to 270.6 °C
COc1cc(C(=O)N2CCN(CCN3C[C@@H](C)O[C@@H](C)C3)C[C@H]2Cc2ccc(C(F)(F)F)cc2)cc(C(F)(F)F)c1.Cl.Cl	139 to 151 °C
C[C@@H]1CN(CCN2CCN(C(=O)c3cc(F)cc(C(F)(F)F)c3)[C@H](Cc3ccc(Cl)cc3)C2)C[C@H](C)O1.Cl.Cl	80.1 to 82.5 °C
COc1cc(C[C@@H]2CN(CCN3CCc4ncccc4C3)CCN2C(=O)c2cc(C(F)(F)F)cc(C(F)(F)F)c2)ccc1C(F)(F)F.Cl.Cl.Cl	195 to 200 °C
COC[C@@H]1CN(CCN2CCN(C(=O)c3cc(SC)cc(C(F)(F)F)c3)[C@H](Cc3ccc(Cl)c(O)c3)C2)CCO1.Cl.Cl	169 to 174 °C
Cl.Cl.Cl.O=C(c1cc(C(F)(F)F)cc(C(F)(F)F)c1)N1CCN(CCN2CCc3ncccc3C2)C[C@H]1Cc1ccc(Cl)cc1	172 to 203 °C (dec.)
CN(C)S(=O)(=O)c1cc(C(=O)N2CCN(CCN3CCc4ncccc4C3)C[C@H]2Cc2ccc(C(F)(F)F)cc2)cc(C(F)(F)F)c1.Cl.Cl.Cl	190 to 194 °C
COC[C@@H]1CN(CCN2CCN(C(=O)c3cc(OC)cc(C(F)(F)F)c3)[C@H](Cc3ccc(F)cc3)C2)CCO1.Cl.Cl	109.5 to 119.2 °C
COC[C@@H]1C[C@@H](OC)CN1CCN1CCN(C(=O)c2cc(C(F)(F)F)cc(C(F)(F)F)c2)[C@H](Cc2ccc(C(F)(F)F)cc2)C1.Cl.Cl	56.59 °C
C[C@@H]1CN(CCN2CCN(C(=O)c3cc(Cl)cc(C(F)(F)F)c3)[C@H](Cc3ccc(Cl)c(O)c3)C2)C[C@H](C)O1.Cl.Cl	196 to 199 °C
C[C@@H]1CN(CCN2CCN(C(=O)c3cc(C(F)(F)F)cc(S(C)(=O)=O)c3)[C@H](Cc3ccc(C(F)(F)F)cc3)C2)C[C@H](C)O1.Cl.Cl	188 to 195 °C
Cl.Cl.Cl.Cl.O=C(c1cc(-c2ccncc2)cc(C(F)(F)F)c1)N1CCN(CCN2CCc3ncccc3C2)C[C@H]1Cc1ccc(Cl)cc1	206 to 217 °C
COc1cc(C(=O)N2CCN(CCCc3cccnc3)C[C@H]2Cc2ccc(F)cc2)cc(C(F)(F)F)c1.Cl.Cl	111.5 to 118.3 °C
COC[C@@H]1CN(CCN2CCN(C(=O)c3cc(-n4cccc4)cc(C(F)(F)F)c3)[C@H](Cc3ccc(C)c(O)c3)C2)CCO1.Cl.Cl	159 to 170 °C
CC1(C)COCCN1CC#CCN1CCN(C(=O)c2cc(C(F)(F)F)cc(C(F)(F)F)c2)[C@H](Cc2ccc(F)cc2)C1.Cl.Cl	76.5 to 130.6 °C
Cl.Cl.Cl.O=C(c1cc(C(F)(F)F)cc(C(F)(F)F)c1)N1CCN(CCN2CCc3ncccc3C2)C[C@H]1Cc1ccc(C(F)(F)F)cc1	174 to 180 °C
COC[C@@H]1CN(CCN2CCN(C(=O)c3cc(-c4ccncc4)cc(C(F)(F)F)c3)[C@H](Cc3ccc(C(F)(F)F)cc3)C2)CCO1.Cl.Cl.Cl	81 to 91 °C
COc1cc(C[C@@H]2CN(CCN3C[C@@H](C)O[C@@H](C)C3)CCN2C(=O)c2cc(-c3ccncc3)cc(C(F)(F)F)c2)ccc1F.Cl.Cl.Cl	137.6 to 142.5 °C
COc1cc(C(=O)N2CCN(CC#CCN3CCOCC3(C)C)C[C@H]2Cc2ccc3ccccc3c2)cc(C(F)(F)F)c1.Cl.Cl	190 to 199 °C
Cc1cc(C(=O)N2CCN(CCN3C[C@@H](C)O[C@@H](C)C3)C[C@H]2Cc2ccc(Cl)cc2)cc(C(F)(F)F)c1.Cl.Cl	82.3 to 88.2 °C
COC[C@@H]1CN(CCN2CCN(C(=O)c3cc(SC)cc(C(F)(F)F)c3)[C@H](Cc3ccc(C(F)(F)F)cc3)C2)CCO1.Cl.Cl	153 to 170 °C
COC[C@@H]1CN(CCN2CCN(C(=O)c3cc(C(F)(F)F)cc(S(=O)(=O)N4CCOCC4)c3)[C@H](Cc3ccc(C)c(O)c3)C2)CCO1.Cl.Cl	130 to 175 °C
COc1cc(C(=O)N2CCN(CCN3CCC(F)(F)CC3)C[C@H]2Cc2ccc3ccccc3c2)cc(C(F)(F)F)c1.Cl.Cl	243 to 260 °C
CSc1cc(C(=O)N2CCN(CCN3C[C@@H](C)O[C@@H](C)C3)C[C@H]2Cc2ccc(C(F)(F)F)cc2)cc(C(F)(F)F)c1.Cl.Cl	154 to 156 °C
COC[C@@H]1CN(CCN2CCN(C(=O)c3cc(C(F)(F)F)cc(S(N)(=O)=O)c3)[C@H](Cc3ccc(C)c(O)c3)C2)CCO1.Cl.Cl	166 to 206 °C
O=C(c1cc(C(F)(F)F)cc(C(F)(F)F)c1)N1CCN(CC#Cc2cccnc2)C[C@H]1Cc1ccc(C(F)(F)F)cc1 [Example 9-(53), (2R)-1-[3,5-Bis(trifluoromethyl)benzoyl]-4-[3-(3-pyridyl)-2-propynyl]-2-[4-(trifluoromethyl)benzyl]-piperazine]	142 to 143 °C
Cl.Cl.O=C(c1cc(C(F)(F)F)cc(C(F)(F)F)c1)N1CCN(CCN2CCC(F)(F)CC2)C[C@H]1Cc1ccc(C(F)(F)F)cc1	209 to 253 °C

Results, then the molecule that gave them:

melting point	SMILES
215 to 224 °C	COc1cc(C(=O)N2CCN(Cc3cccnc3)C[C@H]2Cc2ccc(Cl)c(O)c2)cc(C(F)(F)F)c1.Cl.Cl
145 to 149 °C	COC[C@@H]1CN(CCN2CCN(C(=O)c3cc(C(F)(F)F)cc(C(F)(F)F)c3)[C@H](Cc3ccc(Cl)c(OC)c3)C2)CCO1.Cl.Cl
180 to 200 °C	COC[C@@H]1CN(C/C=C\CN2CCN(C(=O)c3cc(C(F)(F)F)cc(C(F)(F)F)c3)[C@H](Cc3ccc(C)c(O)c3)C2)CCO1.Cl.Cl
203 to 208 °C	Cl.Cl.O=C(c1cc(C(F)(F)F)cc(C(F)(F)F)c1)N1CCN(Cc2cccnc2)C[C@H]1Cc1ccc(F)c(F)c1
255 to 270 °C	Cc1ccc(C[C@@H]2CN(CCN3CCc4ncccc4C3)CCN2C(=O)c2cc(C(F)(F)F)cc(C(F)(F)F)c2)cc1O.Cl.Cl.Cl
60 to 70 °C	Cc1ccc(CC2CN(CCCc3cccnc3)CCN2C(=O)c2cc(C(F)(F)F)cc(C(F)(F)F)c2)cc1O.Cl.Cl (stereo not drawn) [Example 8, 1-[3,5-bis(trifluoromethyl)benzoyl]-2-(3-hydroxy-4-methylbenzyl)-4-[3-(3-pyridyl)propyl]piperazine dihydrochloride]
151 to 156 °C	COC[C@@H]1CN(CCN2CCN(C(=O)c3cc(C(F)(F)F)cc(C(F)(F)F)c3)[C@H](Cc3ccc(F)c(C)c3)C2)CCO1.Cl.Cl
207 to 210 °C	COC[C@@H]1CN(CCN2CCN(C(=O)c3cc(C(F)(F)F)cc(C(F)(F)F)c3)[C@H](Cc3ccc(C)c(O)c3)C2)CCO1.Cl.Cl [Example 5-(1)]
214 to 218 °C	COC[C@@H]1CN(CCN2CCN(C(=O)c3cc(C(F)(F)F)cc(C(F)(F)F)c3)C(Cc3ccc(C)c(O)c3)C2)[C@@H](C)CO1.Cl.Cl (stereo partly drawn) [4-(2), 1-[3,5-Bis(trifluoromethyl)benzoyl]-2-(3-hydroxy-4-methylbenzyl)-4-[2-[(2S,5S)-2-methoxymethyl-5-methylmorpholino]ethyl]piperazine dihydrochloride]
90 to 120 °C	COC[C@@H]1CN(CCN2CCN(C(=O)c3cc(C(F)(F)F)cc(C(F)(F)F)c3)[C@H](Cc3ccc(Cl)cc3)C2)CCO1.Cl.Cl
245 to 265 °C	Cc1ccc(C[C@@H]2CN(CCN3CCc4sccc4C3)CCN2C(=O)c2cc(C(F)(F)F)cc(C(F)(F)F)c2)cc1O.Cl.Cl
172 to 175 °C	C[C@@H]1CN(CCN2CCN(C(=O)c3cc(C(F)(F)F)cc(C(F)(F)F)c3)[C@H](Cc3ccc(Cl)c(O)c3)C2)C[C@H](C)O1.Cl.Cl
168 to 195 °C	C[C@@H]1CN(CCN2CCN(C(=O)c3cc(C(F)(F)F)cc(C(F)(F)F)c3)[C@H](Cc3ccc4ccccc4c3)C2)C[C@H](C)O1.Cl.Cl
65 to 70 °C	Cl.Cl.O=C(c1cc(C(F)(F)F)cc(C(F)(F)F)c1)N1CCN(CCCc2cccnc2)C[C@H]1Cc1ccc(Cl)c(O)c1
154 to 159 °C	Cl.Cl.O=C(c1cc(C(F)(F)F)cc(C(F)(F)F)c1)N1CCN(CCN2C[C@H](O)[C@@H](O)C2)C[C@H]1Cc1ccc(C(F)(F)F)cc1
198 to 201 °C	COc1cc(C[C@@H]2CN(CCN3CCC[C@H]3CO)CCN2C(=O)c2cc(C(F)(F)F)cc(C(F)(F)F)c2)ccc1F.Cl.Cl
159 to 163 °C	Cl.Cn1cc(CN2CCN(C(=O)c3cc(C(F)(F)F)cc(C(F)(F)F)c3)[C@H](Cc3ccc(Cl)c(O)c3)C2)cn1
160 to 169 °C	COC[C@@H]1CN(CCN2CCN(C(=O)c3cc(C(F)(F)F)cc(C(F)(F)F)c3)[C@H](Cc3ccc(Cl)c(O)c3)C2)CCO1.Cl.Cl
177 to 182 °C	Cc1ccc(C[C@@H]2CN(Cc3nsc(N)n3)CCN2C(=O)c2cc(C(F)(F)F)cc(C(F)(F)F)c2)cc1O.Cl.Cl
155.5 to 170.1 °C	Cl.Cl.Cl.O=C(c1cc(C(F)(F)F)cc(C(F)(F)F)c1)N1CCN(CCN2CCc3ncccc3C2)C[C@H]1Cc1ccc(F)cc1
163 to 178 °C	COc1cc(C[C@@H]2CN(CCN3CC4CCC(C3)O4)CCN2C(=O)c2cc(C(F)(F)F)cc(C(F)(F)F)c2)ccc1F.Cl.Cl
210 to 245 °C (dec.)	Cl.Cn1cc(CN2CCN(C(=O)c3cc(C(F)(F)F)cc(C(F)(F)F)c3)[C@H](Cc3ccc(Cl)cc3)C2)cn1
198 to 208 °C	Cl.Cl.O=C(c1cc(C(F)(F)F)cc(C(F)(F)F)c1)N1CCN(Cc2cccnc2)C[C@H]1Cc1ccc2ccccc2c1
173 to 185 °C	Cc1ccc(CC2CN(CCN3C[C@H]4C[C@H]3C(C)(C)O4)CCN2C(=O)c2cc(C(F)(F)F)cc(C(F)(F)F)c2)cc1O.Cl.Cl (stereo partly drawn)
140 to 156 °C	Cc1ccc(C[C@@H]2CN(Cc3cnn(CCO)c3)CCN2C(=O)c2cc(C(F)(F)F)cc(C(F)(F)F)c2)cc1O.Cl
101 to 108 °C	COc1cc(C(=O)N2CCN(Cc3cccnc3)C[C@H]2Cc2ccc(C(F)(F)F)cc2)cc(C(F)(F)F)c1.Cl.Cl
180 to 190 °C	COC[C@@H]1CN(CCN2CCN(C(=O)c3cc(C(F)(F)F)cc(C(F)(F)F)c3)[C@H](Cc3ccc(F)c(OC)c3)C2)CCO1.Cl.Cl
